Measurements taken from patent US7285703B2, “Plant like starches and the method of making them in hosts” (BASF Plant Science GmbH, priority 1998, dated 2007).

Key:
[1] = target: maize starch synthase SSIIa-2, N-terminally truncated SSIIa, first 176 amino acids deleted (493 amino acids), N-terminus GENVMNVI (SEQ ID NO:1) (Zea mays, UniProt A0A804PX87); experiment: ADPGlc kinetics of starch synthase SSIIa-2; assay type: biochemical; conditions: for Vmax (ADPGlc kinetics): amylopectin as primer
Excerpt: (§1) FIG. 59. SSIIa-1 and SSIIa-2 construct diagram. Two forms of SSIIa were constructed in the pET expression system. pExs3c encodes SSIIa-1, the putative full length maize SSIIa which has the N-terminal sequence AEAEAGGK (SEQ ID NO:68). […] A depiction of the waxy gene, encoding GBSS which has the N-terminal sequence ASAGMNVV (SEQ ID NO:67), is also included for comparison. The amino acid motif KTGGL (SEQ ID NO:10), the putative binding site for ADPGlc, is indicated by the triangles. The KTGGL (SEQ ID NO:10) motif is located 18 amino acids from the N-terminus in GBSS, while the motif is 194 amino acids from the N-terminus in maize SSIIa.
(§2) 5 mL of supernatant were used to assay STS and SBE activities as previously described (Preiss) with minor modification. […] […] The unincorporated [^14C]-ADPGlc was separated with Dowex anion exchange column (200-400 mesh, Sigma Chemical Co.). One unit of activity is defined as 1 nmol Glc incorporated into the a-glucan per min at 25° C. SBE activity was determined by phosphorylase stimulation assay. One unit of activity is defined as 1 mmol Glc incorporated into the a-glucan per min at. 30° C.
For the recombinant SS purification, the cell pellet was resuspended in sonication buffer (50 mM Tris-acetate, pH 7.5, 10 mM EDTA, and 5 mMDTT; 7 ml buffer per gram of cell mass), and cells were lysed using a Fisher 550 Sonic Dismembrator with 5×1 min. bursts with 30 sec. intervals. The homogenate was centrifuged at 9600 g for 30 minutes. SSI in the supernatant was then precipitated by slowly adding neutralized saturated ammonium sulfate to 40% saturation. After stirring on ice for an additional 50 minutes, proteins were collected by centrifugation at 12500 g for 45 minutes. The protein pellet was then redissolved in buffer A (50 mM Tris, pH 5.5, 1 mM EDTA, and 5 mM DTT) containing 0.1 M KCl and dialyzed against the same buffer, with one change of buffer. After dialysis, the sample was centrifuged at 13000 g for 20 minutes to remove insoluble materials. The resulting supernatant was loaded onto […] pre-equilibrated with dialysis buffer, and the flow through was collected. The column was washed with 10 column volumes of buffer a containing 0.1 M KCl, and then with buffer A containing 0.5 M KCl and 0.5 M maltose, collecting fractions during both washes. The active fractions were pooled and dialyzed overnight against buffer A, with one change of buffer. The next day, the amylase column sample was filtered and applied to a mono Q 5/5 FPLC column (Pharmacia). After washing with buffer A, a 20 ml 0-0,4 M KCl gradient was employed. The active fractions were electrophoresed on an 8% SDS-PAGE gel (31) to determine the purity of SSI in those fractions; the fractions which were apparently homogeneous were pooled and concentrated using a Centricon-30 spin column (Amicon).

[2] = target: maize starch synthase SSIIa-1, putative full length SSIIa (669 amino acids), N-terminus AEAEAGGK (SEQ ID NO:68) (Zea mays, UniProt A0A804PX87); experiment: ADPGlc kinetics of starch synthase SSIIa-1; assay type: biochemical; conditions: for Vmax (ADPGlc kinetics): amylopectin as primer, 27° C.
maize starch synthase SSIIa-1, putative full length SSIIa (669 amino acids), N-terminus AEAEAGGK (SEQ ID NO:68), sequence (A0A804PX87 entry or part of it): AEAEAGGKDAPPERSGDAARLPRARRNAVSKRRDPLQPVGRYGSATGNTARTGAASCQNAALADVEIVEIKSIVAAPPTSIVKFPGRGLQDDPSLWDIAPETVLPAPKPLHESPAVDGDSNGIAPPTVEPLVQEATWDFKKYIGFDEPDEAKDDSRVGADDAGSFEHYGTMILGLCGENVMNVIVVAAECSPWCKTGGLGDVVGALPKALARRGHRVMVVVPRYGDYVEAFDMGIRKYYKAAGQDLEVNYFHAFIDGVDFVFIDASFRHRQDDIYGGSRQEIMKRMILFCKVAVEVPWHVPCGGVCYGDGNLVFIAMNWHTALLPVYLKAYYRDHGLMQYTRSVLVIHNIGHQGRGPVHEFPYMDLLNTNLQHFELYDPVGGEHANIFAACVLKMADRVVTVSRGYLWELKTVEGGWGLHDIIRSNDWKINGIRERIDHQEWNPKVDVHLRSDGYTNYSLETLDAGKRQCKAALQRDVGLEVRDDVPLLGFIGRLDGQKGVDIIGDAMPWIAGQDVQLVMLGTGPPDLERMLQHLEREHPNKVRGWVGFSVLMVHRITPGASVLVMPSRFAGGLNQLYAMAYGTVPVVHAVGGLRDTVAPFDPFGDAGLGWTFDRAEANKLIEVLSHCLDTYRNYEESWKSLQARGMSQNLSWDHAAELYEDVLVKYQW
Excerpt: as §1, §2
For the recombinant SS purification, the cell pellet was resuspended in sonication buffer (50 mM Tris-acetate, pH 7.5, 10 mM EDTA, and 5 mMDTT; 7 ml buffer per gram of cell mass), and cells were lysed using a Fisher 550 Sonic Dismembrator with 5×1 min. bursts with 30 sec. intervals. The homogenate was centrifuged at 9600 g for 30 minutes. SSI in the supernatant was then precipitated by slowly adding neutralized saturated ammonium sulfate to 40% saturation. After stirring on ice for an additional 50 minutes, proteins were collected by centrifugation at 12500 g for 45 minutes. The protein pellet was then redissolved in buffer A (50 mM Tris, pH 5.5, 1 mM EDTA, and 5 mM DTT) containing 0.1 M KCl and dialyzed against the same buffer, with one change of buffer. After dialysis, the sample was centrifuged at 13000 g for 20 minutes to remove insoluble materials. […]

[3] = target: T1, maize starch synthase SSI-2 (STSI-2), N-terminally truncated SSI, amino acids 8-52 of SSI-1 deleted, N-terminus CVAELSR/DLG (SEQ ID NO:65) (Zea mays, UniProt O49064, DEL47-91); experiment: ADPGlc kinetics of starch synthase SSI-2; conditions: 5 mg/ml amylopectin as primer, 37° C.
T1 sequence (O49064 with tags, fused parts or gaps DEL47-91): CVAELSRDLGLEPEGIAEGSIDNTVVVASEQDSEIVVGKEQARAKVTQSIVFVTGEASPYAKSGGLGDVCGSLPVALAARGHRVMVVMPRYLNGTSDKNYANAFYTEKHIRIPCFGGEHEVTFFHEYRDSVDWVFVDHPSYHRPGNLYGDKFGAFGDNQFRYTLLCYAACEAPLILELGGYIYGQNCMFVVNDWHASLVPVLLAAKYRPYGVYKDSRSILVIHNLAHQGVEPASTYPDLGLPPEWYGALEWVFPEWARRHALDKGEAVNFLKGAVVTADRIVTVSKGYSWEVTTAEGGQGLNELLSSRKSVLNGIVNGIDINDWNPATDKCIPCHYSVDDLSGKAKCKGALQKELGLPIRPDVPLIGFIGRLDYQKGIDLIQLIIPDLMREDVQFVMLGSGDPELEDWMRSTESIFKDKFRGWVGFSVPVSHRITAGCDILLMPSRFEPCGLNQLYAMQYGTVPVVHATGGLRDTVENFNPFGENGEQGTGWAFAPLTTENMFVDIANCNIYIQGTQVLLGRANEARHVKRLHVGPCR
Procedure: (SEQ ID NO:64). pExs8 encodes a truncated SSI, SSI-2, with amino acids # 8-52 deleted from the N-terminus of SSI-1 and which has the N-terminal sequence CVAELSR/DLG (SEQ ID NO:65). pExs1d encodes the most truncated form of SSI, SSI-3, with the first 93 amino acids deleted from SSI-1 and which has the N-terminal sequence [sequence]
5 mL of supernatant were used to assay STS and SBE activities as previously described (Preiss) with minor modification. The reaction mixture for STS contained 100 mM Bicine buffer, 10 mg/mL glycogen, 0.5 mg/mL BSA, 0.5 M sodium citrate, 25 mM potassium acetate, 10 mM GSH, 3 mM [^14C]-ADPGlc (500 dpm/nmol) and enzyme in a final volume of 0.1 mL. The reaction was carried out at 25° C. for 15 min and terminated by boiling for 2 min. The unincorporated [^14C]-ADPGlc was separated with Dowex anion exchange column (200-400 mesh, Sigma Chemical Co.). One unit of activity is defined as 1 nmol Glc incorporated into the a-glucan per min at 25° C.
For the recombinant SS purification, the cell pellet was resuspended in sonication buffer (50 mM Tris-acetate, pH 7.5, 10 mM EDTA, and 5 mMDTT; 7 ml buffer per gram of cell mass), and cells were lysed using a Fisher 550 Sonic Dismembrator with 5×1 min. bursts with 30 sec. intervals. The homogenate was centrifuged at 9600 g for 30 minutes. SSI in the supernatant was then precipitated by slowly adding neutralized saturated ammonium sulfate to 40% saturation. After stirring on ice for an additional 50 minutes, proteins were collected by centrifugation at 12500 g for 45 minutes. The protein pellet was then redissolved in buffer A (50 mM Tris, pH 5.5, 1 mM EDTA, and 5 mM DTT) containing 0.1 M KCl and dialyzed against the same buffer, with one change of buffer. After dialysis, the sample was centrifuged at 13000 g for 20 minutes to remove insoluble materials. The resulting supernatant was loaded onto amylase affinity column pre-equilibrated with dialysis buffer, and the flow through was collected. […]

maize starch synthase SSIIa-2, N-terminally truncated SSIIa, first 176 amino acids deleted (493 amino acids), N-terminus GENVMNVI (SEQ ID NO:1), sequence (A0A804PX87 entry or part of it, stated change not applied): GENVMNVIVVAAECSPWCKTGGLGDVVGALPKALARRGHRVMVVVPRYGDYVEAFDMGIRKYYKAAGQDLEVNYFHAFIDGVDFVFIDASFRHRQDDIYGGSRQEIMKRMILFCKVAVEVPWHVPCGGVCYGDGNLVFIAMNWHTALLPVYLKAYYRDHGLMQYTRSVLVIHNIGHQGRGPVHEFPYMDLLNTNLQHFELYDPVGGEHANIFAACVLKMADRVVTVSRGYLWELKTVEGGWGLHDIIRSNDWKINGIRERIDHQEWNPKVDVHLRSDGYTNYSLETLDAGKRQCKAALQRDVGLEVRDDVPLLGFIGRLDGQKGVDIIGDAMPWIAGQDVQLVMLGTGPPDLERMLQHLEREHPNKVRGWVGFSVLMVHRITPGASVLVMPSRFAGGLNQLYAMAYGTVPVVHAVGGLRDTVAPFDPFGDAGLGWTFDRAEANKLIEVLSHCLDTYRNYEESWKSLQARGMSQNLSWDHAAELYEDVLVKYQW

## Nc1ncnc2c1ncn2[C@@H]1O[C@H](COP(=O)(O)OP(=O)(O)O[C@H]2O[C@H](CO)[C@@H](O)[C@H](O)[C@H]2O)[C@@H](O)[C@H]1O [ADPGlc, adenosine diphosphate glucose]
[1]; all assay conditions used except glycogen primer at 27° C.
  Km for ADPGlc compared with SSIIa-1: lower Km for ADPGlc
[1]; +citrate, 27° C.
  Vmax (ADPGlc kinetics): 4.83 ± 0.42 μmol/min/mg protein
[1]; +citrate, 37° C.
  Vmax (ADPGlc kinetics): 11.4 ± 0.6 μmol/min/mg protein
[1]; −citrate, 27° C.
  Vmax (ADPGlc kinetics): 4.87 ± 0.25 μmol/min/mg protein
[1]; −citrate, 37° C.
  Vmax (ADPGlc kinetics): 7.86 ± 0.53 μmol/min/mg protein
[1]; from 27° C. to 37° C.
  effect of raising temperature on Km for ADPGlc: not affected by raising temperature
[2]; +citrate
  Vmax (ADPGlc kinetics): 23.0 ± 2.5 μmol/min/mg protein
[2]; −citrate
  Vmax (ADPGlc kinetics): 12.1 ± 0.8 μmol/min/mg protein
[2]; from 27° C. to 37° C.
  increase of Km of ADPGlc upon raising the assay temperature: 2 fold
[3]; +citrate
  Vm (ADPGlc kinetics): 32.6 ± 0.8 μmol/min/mg protein
[3]; −citrate
  Vm (ADPGlc kinetics): 11.7 ± 0.7 μmol/min/mg protein
